Assay results: patent US20260159512A1, “BCAT2 INHIBITORS” (AGIOS PHARMACEUTICALS, INC., priority 2021, published 2026)

Tests used:
Details in all cases: average where tested multiple times
[1] = target: T1, BCAT2 (Homo sapiens, UniProt O15382); assay: BCAT2 in vitro enzyme inhibition assay (resazurin/diaphorase-coupled fluorescence); assay type: biochemical
T1 sequence (O15382 28-392): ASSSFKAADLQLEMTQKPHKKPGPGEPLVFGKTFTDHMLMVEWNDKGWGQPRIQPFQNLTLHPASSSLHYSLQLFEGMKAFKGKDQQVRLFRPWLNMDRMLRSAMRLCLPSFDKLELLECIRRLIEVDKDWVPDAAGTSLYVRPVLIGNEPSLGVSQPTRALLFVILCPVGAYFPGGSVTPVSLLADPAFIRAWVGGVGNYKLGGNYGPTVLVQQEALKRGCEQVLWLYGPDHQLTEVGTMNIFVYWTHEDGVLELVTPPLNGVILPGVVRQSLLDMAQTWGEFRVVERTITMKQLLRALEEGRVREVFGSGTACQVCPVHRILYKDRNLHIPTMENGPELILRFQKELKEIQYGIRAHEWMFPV
In short: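 Coupled fluorescence readout: glutamate formed from L-leucine/α-ketoglutarate transamination drives GDH/NAD/diaphorase reduction of resazurin (Ex 540/Em 590). Human BCAT2 was first exposed 1 h at room temperature to compound, top final 100 μM in 3-fold, 10-point series; substrate reaction ran 1 h before SDS quench, in technical duplicate with DMSO max and enzyme-free min controls.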

[2] = target: T2, hBCAT1 (Homo sapiens, UniProt P54687); assay: BCAT1 in vitro enzyme inhibition assay (resazurin/diaphorase-coupled fluorescence); assay type: biochemical
T2 sequence (P54687 1-386): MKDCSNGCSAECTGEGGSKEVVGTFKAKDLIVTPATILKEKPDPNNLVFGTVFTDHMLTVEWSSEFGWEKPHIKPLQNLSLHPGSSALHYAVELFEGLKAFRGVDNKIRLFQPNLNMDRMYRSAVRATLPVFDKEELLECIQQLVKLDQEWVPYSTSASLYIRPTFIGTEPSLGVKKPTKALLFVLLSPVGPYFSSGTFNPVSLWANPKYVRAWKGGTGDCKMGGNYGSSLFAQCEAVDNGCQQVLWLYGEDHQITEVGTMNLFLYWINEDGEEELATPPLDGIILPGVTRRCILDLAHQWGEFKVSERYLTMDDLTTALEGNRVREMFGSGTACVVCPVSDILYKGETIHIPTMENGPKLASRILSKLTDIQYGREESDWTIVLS
In short: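 Human BCAT1 activity read by resazurin/diaphorase-coupled fluorescence. Compounds added from 50× DMSO stocks at 1:50, giving 10-point 3-fold titrations from 100 μM top final concentration. Run in technical duplicate; repeat tests averaged.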

[3] = target: T1, BCAT2; assay: BCAT2 in vitro cell inhibition using engineered A549 cells (KMV cell assay, 13C6-KMV by LC-MS/MS); assay type: cell-based; set-up: The result was an engineered A549 cell line that expressed endogenous BCAT2; endogenous in cells; host or cells: A549 cells with MUT and BCAT1 knocked out by CRISPR/CAS9

O=C(N[C@@H]1C[C@H](n2c(-c3ccccc3F)nc3cnc(-c4nc[nH]n4)cc32)CS(=O)(=O)C1)c1ccc(Cl)s1 [Example 456, 5-chloro-N-((3R,5S)-5-(2-(2-fluorophenyl)-6-(1H-1,2,4-triazol-3-yl)-1H-imidazo[4,5-c]pyridin-1-yl)-1,1-dioxidotetrahydro-2H-thiopyran-3-yl)thiophene-2-carboxamide]
IC50 [1]: ≤ 100 nM | IC50 [2]: < 500 nM | IC50 [3]: > 1000 nM

CS(=O)(=O)N1C[C@H](NC(=O)c2ccc(Cl)s2)C[C@H](n2c(-c3ccccc3F)nc3cnc(-c4nc[nH]n4)cc32)C1 [Example 458, 5-chloro-N-((3R,5S)-5-(2-(2-fluorophenyl)-6-(1H-1,2,4-triazol-3-yl)-1H-imidazo[4,5-c]pyridin-1-yl)-1-(methylsulfonyl)piperidin-3-yl)thiophene-2-carboxamide]
IC50 [1]: ≤ 100 nM | IC50 [2]: < 500 nM | IC50 [3]: ≤ 100 nM

CS(=O)(=O)N1C[C@H](NC(=O)c2ncc(Cl)s2)C[C@H](n2c(-c3ccccc3F)nc3cnc(-c4nc[nH]n4)cc32)C1 [Example 460, 5-chloro-N-((3R,5S)-5-(2-(2-fluorophenyl)-6-(1H-1,2,4-triazol-3-yl)-1H-imidazo[4,5-c]pyridin-1-yl)-1-(methylsulfonyl)piperidin-3-yl)thiazole-2-carboxamide]
IC50 [1]: ≤ 100 nM | IC50 [2]: < 500 nM | IC50 [3]: ≤ 100 nM

COC(=O)N1C[C@H](NC(=O)c2ccc(Cl)s2)C[C@H](n2c(-c3ccccc3F)nc3cnc(-c4nc[nH]n4)cc32)C1 [Example 462, methyl (3R,5S)-3-(5-chlorothiophene-2-carboxamido)-5-(2-(2-fluorophenyl)-6-(1H-1,2,4-triazol-3-yl)-1H-imidazo[4,5-c]pyridin-1-yl)piperidine-1-carboxylate]
IC50 [1]: ≤ 100 nM | IC50 [2]: < 500 nM | IC50 [3]: ≤ 100 nM
